Measurements taken from ChEMBL document CHEMBL4507326, “Data for DCP probe TP-030-2” (2021).

What was measured:
[1] = molecular target: Inhibitor of nuclear factor kappa-B kinase subunit epsilon (Homo sapiens, UniProt Q14164); assay: IKKepsilon(IKBELGY1) Takeda global kinase panel
[2] = molecular target: Serine/threonine-protein kinase MARK1 (Homo sapiens, UniProt Q9P0L2); assay: MARK1(MAR1PHY1) Takeda global kinase panel
[3] = molecular target: Alpha-2A adrenergic receptor (Homo sapiens) (UniProt P08913); conditions: Compound concentration 10.0 uM
Chain of Alpha-2A adrenergic receptor (Homo sapiens) (P08913 whole entry): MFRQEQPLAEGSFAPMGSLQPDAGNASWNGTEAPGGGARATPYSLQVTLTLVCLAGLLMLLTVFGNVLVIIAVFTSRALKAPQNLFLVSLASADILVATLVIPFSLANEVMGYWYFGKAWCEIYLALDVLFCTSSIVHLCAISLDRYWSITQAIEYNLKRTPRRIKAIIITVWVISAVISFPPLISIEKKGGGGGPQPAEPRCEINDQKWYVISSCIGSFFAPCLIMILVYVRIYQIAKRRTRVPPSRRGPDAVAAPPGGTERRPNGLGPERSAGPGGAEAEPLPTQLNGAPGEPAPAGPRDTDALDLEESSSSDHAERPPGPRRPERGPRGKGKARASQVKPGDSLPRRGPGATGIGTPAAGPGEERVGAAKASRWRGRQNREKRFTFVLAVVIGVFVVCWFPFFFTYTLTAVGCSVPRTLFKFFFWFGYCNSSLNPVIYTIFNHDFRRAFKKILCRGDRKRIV

[4] = molecular target: Beta-adrenergic receptor kinase 1 (Homo sapiens, UniProt P25098); assay: BARK1 [GRK2(ADR1LGG5)] Takeda global kinase panel
[5] = molecular target: Rhodopsin kinase GRK1 (Homo sapiens, UniProt Q15835); assay: RHODK [GRK1(GRK1LGA1)] Takeda global kinase panel
[6] = molecular target: Serine/threonine-protein kinase PINK1, mitochondrial (Homo sapiens, UniProt Q9BXM7); assay: PINK1(PIN1PHRE) Takeda global kinase panel
[7] = molecular target: Cyclin-dependent kinase 8 (Homo sapiens, UniProt P49336); assay: CDK8(CDK8CGS1) Takeda global kinase panel
[8] = molecular target: Insulin-like growth factor 1 receptor (Homo sapiens, UniProt P08069); assay: IGF1R(IGF1LGF1) Takeda global kinase panel
[9] = molecular target: Dual specificity tyrosine-phosphorylation-regulated kinase 2 (Homo sapiens, UniProt Q92630); assay: DYRK2(DYR2LGY1) Takeda global kinase panel
[10] = molecular target: G protein-coupled receptor kinase 6 (Homo sapiens, UniProt P43250); assay: GRK6(GRK6LGP1) Takeda global kinase panel
Chain of G protein-coupled receptor kinase 6 (P43250 whole entry): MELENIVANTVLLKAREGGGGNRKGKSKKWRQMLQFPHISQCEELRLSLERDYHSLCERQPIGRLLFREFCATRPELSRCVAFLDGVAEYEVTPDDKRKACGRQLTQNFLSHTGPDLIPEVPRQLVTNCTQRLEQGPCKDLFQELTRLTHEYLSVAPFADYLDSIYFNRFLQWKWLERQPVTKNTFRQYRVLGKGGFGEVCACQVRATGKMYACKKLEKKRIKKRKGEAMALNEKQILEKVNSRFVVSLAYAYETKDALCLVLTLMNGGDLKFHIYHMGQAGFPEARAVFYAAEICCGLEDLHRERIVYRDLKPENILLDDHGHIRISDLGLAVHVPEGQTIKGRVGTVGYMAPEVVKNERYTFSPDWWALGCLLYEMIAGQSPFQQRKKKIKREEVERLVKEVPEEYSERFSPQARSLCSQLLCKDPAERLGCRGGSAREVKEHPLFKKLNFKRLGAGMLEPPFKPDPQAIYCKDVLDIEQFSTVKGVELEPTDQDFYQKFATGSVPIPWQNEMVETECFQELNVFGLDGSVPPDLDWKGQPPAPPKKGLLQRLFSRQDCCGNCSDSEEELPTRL

[11] = molecular target: Neuropeptide Y receptor type 2 (Homo sapiens) (UniProt P49146); assay: Inhibition of Neuropeptide Y Y2 at 10 µM in the Eurofins-Panlabs radioligand binding assay (Eurofins_assay_257110); conditions: Compound concentration 10.0 uM
Chain of Neuropeptide Y receptor type 2 (Homo sapiens) (P49146 whole entry): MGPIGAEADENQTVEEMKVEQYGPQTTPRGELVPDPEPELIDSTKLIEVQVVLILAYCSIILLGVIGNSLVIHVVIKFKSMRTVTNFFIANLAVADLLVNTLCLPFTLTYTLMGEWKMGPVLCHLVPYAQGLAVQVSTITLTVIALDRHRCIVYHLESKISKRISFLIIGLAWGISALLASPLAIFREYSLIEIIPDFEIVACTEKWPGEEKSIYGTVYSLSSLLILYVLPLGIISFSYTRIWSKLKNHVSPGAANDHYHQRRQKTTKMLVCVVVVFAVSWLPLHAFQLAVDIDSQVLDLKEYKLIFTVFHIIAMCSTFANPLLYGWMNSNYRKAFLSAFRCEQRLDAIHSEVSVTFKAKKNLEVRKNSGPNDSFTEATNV

[12] = molecular target: Myosin light chain kinase family member 4 (Homo sapiens, UniProt Q86YV6); assay: SgK085(SG85LGY1) Takeda global kinase panel
Chain of Myosin light chain kinase family member 4 (Q86YV6 whole entry): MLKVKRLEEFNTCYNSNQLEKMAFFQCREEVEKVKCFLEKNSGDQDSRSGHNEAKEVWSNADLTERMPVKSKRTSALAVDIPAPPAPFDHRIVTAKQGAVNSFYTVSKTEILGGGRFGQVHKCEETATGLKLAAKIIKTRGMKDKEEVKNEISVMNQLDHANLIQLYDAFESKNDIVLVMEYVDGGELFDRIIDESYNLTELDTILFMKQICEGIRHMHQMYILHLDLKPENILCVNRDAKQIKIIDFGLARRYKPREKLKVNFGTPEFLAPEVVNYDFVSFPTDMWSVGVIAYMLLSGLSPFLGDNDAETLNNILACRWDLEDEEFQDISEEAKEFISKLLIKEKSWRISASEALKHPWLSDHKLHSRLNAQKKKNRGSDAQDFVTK

[13] = molecular target: Dual specificity tyrosine-phosphorylation-regulated kinase 1B (Homo sapiens, UniProt Q9Y463); assay: DYRK1B(DY1BLHY1) Takeda global kinase panel
[14] = molecular target: Mitogen-activated protein kinase kinase kinase kinase 1 (Homo sapiens, UniProt Q92918); assay: HPK1(M4K1LGY1) Takeda global kinase panel
[15] = molecular target: Peripheral plasma membrane protein CASK (Homo sapiens, UniProt O14936); assay: CASK(CASKLGY1) Takeda global kinase panel
[16] = molecular target: GABA-A receptor; anion channel (Rattus norvegicus) (UniProt O09028+P15431+P18506+P18508+P19969+P20236+P23574+P23576+P28471+P28473+P30191+P62813+P63079+P63138+Q91ZM7+Q9ES14); conditions: Compound concentration 10.0 uM
[17] = molecular target: Sigma intracellular receptor 2 (Homo sapiens, UniProt Q5BJF2); conditions: Compound concentration 10.0 uM
Chain of Sigma intracellular receptor 2 (Q5BJF2 whole entry): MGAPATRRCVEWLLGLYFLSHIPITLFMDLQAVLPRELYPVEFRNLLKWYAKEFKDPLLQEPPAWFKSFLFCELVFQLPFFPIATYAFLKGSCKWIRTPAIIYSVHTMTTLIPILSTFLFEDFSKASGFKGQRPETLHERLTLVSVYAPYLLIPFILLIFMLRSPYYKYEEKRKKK

[18] = molecular target: L-type calcium channel, dihydropyridine site (Cav1.2 alpha-1C) (Homo sapiens, UniProt Q13936); assay: Inhibition of Calcium Channel L-Type, Dihydropyridine at 10 µM in the Eurofins-Panlabs radioligand binding assay (Eurofins_assay_214600); parameters: ligand concentration 0.1 nM, non-specific ligand with concentration 1 µM Nitrendipine, incubation time 90 min, incubation temperature 25 °C; conditions: Wistar, rat, rat cerebral cortex preparation, probe [3H] Nitrendipine; compound concentration 10 uM; target entry is the homologue from another species
[19] = molecular target: Mitogen-activated protein kinase 11 (Homo sapiens, UniProt Q15759); assay: p38beta(MP11LGI1) Takeda global kinase panel
[20] = molecular target: Serine/threonine-protein kinase Nek5 (Homo sapiens, UniProt Q6P3R8); assay: Nek5(NEK5LGRD) Takeda global kinase panel
Chain of Serine/threonine-protein kinase Nek5 (Q6P3R8 whole entry): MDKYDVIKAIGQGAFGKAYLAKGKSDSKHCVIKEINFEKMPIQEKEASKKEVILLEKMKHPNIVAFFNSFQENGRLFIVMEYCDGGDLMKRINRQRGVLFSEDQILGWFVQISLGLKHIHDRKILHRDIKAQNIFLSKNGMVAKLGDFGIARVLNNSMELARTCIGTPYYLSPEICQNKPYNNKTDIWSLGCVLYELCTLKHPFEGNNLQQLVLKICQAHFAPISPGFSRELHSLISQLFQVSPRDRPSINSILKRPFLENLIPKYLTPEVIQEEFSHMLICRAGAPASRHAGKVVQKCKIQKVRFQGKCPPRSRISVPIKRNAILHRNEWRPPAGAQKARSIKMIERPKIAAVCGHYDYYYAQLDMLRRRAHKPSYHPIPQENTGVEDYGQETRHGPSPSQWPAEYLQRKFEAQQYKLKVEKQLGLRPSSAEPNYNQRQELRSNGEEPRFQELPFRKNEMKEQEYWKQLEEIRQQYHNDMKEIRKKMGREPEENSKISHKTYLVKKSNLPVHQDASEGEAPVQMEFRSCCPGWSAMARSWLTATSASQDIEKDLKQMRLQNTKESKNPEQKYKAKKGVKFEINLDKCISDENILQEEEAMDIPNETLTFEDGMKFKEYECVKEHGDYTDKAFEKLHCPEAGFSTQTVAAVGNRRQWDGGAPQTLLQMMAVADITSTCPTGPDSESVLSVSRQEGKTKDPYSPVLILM

[21] = molecular target: Serine/threonine-protein kinase 26 (Homo sapiens, UniProt Q9P289); assay: MST4(MST4LGC1) Takeda global kinase panel
Chain of Serine/threonine-protein kinase 26 (Q9P289 whole entry): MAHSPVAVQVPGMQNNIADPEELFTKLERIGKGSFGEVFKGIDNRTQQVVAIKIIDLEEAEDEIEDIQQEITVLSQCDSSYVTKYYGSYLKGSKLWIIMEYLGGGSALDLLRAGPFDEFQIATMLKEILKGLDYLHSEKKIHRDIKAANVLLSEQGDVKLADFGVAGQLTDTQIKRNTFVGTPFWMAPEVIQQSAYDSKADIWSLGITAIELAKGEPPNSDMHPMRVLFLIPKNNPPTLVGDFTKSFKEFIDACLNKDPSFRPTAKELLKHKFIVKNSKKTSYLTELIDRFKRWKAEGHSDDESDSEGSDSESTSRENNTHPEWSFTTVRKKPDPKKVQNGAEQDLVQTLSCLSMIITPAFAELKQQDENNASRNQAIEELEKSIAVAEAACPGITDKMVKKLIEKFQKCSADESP

[22] = molecular target: Alpha-2A adrenergic receptor (Homo sapiens, UniProt P08913); assay: GPCRScan assay: inhibition of Alpha2A; parameters: radioligand conc. used [nm] 1.0 – 3.0, parental cells stable MDCK
Chain of Alpha-2A adrenergic receptor (P08913 whole entry): as the sequence (P08913 whole entry) above

[23] = molecular target: Serine/threonine-protein kinase greatwall (Homo sapiens, UniProt Q96GX5); assay: MASTL(MASLLGE1) Takeda global kinase panel
[24] = molecular target: Muscarinic acetylcholine receptor M4 (Homo sapiens) (UniProt P08173); conditions: Compound concentration 10.0 uM
[25] = molecular target: Death-associated protein kinase 1 (Homo sapiens, UniProt P53355); assay: DAPK1(DAP1LGF1) Takeda global kinase panel
[26] = molecular target: RAC-gamma serine/threonine-protein kinase (Homo sapiens, UniProt Q9Y243); assay: Akt3 [PKBgamma(AKT3LGY1)] Takeda global kinase panel
[27] = molecular target: Serine/threonine-protein kinase TAO3 (Homo sapiens, UniProt Q9H2K8); assay: TAO3(TAO3LGY1) Takeda global kinase panel
[28] = species on record: Rattus norvegicus; assay: Inhibition of Imidazoline I2, Central at 10 µM in the Eurofins-Panlabs radioligand binding assay (Eurofins_assay_241000); parameters: ligand concentration 2 nM; conditions: Compound concentration 10.0 uM
[29] = molecular target: Myotonin-protein kinase (Homo sapiens, UniProt Q09013); assay: DMPK(DMPKLGF1) Takeda global kinase panel
[30] = molecular target: Neuropeptide Y receptor type 1 (Homo sapiens) (UniProt P25929); assay: Inhibition of Neuropeptide Y Y1 at 10 µM in the Eurofins-Panlabs radioligand binding assay (Eurofins_assay_257010); conditions: Compound concentration 10.0 uM
[31] = molecular target: Microtubule-associated serine/threonine-protein kinase 3 (Homo sapiens, UniProt O60307); assay: MAST3(MAS3LGE1) Takeda global kinase panel
[32] = molecular target: Insulin receptor-related protein (Homo sapiens, UniProt P14616); assay: IRR(INSSLGF1) Takeda global kinase panel
Chain of Insulin receptor-related protein (P14616 27-742 limits assumed): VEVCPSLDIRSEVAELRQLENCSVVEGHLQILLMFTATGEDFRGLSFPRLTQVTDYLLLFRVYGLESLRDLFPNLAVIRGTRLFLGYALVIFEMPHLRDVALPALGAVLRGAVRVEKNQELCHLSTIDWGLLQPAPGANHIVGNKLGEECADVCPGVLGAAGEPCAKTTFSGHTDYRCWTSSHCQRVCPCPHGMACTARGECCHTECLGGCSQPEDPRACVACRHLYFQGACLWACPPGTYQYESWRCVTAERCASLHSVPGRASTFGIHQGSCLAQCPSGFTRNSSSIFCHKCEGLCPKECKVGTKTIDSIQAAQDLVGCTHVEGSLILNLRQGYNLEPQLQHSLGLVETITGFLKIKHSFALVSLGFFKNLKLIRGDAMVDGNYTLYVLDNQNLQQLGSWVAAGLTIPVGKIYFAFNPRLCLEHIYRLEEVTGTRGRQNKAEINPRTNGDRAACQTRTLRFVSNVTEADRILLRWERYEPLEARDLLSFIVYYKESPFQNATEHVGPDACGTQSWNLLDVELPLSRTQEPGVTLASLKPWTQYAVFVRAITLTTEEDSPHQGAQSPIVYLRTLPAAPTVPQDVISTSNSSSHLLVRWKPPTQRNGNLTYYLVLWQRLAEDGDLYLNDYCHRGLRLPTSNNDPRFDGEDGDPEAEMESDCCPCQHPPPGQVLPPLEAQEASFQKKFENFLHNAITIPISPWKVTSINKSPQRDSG
Chain of Insulin receptor-related protein (P14616 747-1297 limits assumed): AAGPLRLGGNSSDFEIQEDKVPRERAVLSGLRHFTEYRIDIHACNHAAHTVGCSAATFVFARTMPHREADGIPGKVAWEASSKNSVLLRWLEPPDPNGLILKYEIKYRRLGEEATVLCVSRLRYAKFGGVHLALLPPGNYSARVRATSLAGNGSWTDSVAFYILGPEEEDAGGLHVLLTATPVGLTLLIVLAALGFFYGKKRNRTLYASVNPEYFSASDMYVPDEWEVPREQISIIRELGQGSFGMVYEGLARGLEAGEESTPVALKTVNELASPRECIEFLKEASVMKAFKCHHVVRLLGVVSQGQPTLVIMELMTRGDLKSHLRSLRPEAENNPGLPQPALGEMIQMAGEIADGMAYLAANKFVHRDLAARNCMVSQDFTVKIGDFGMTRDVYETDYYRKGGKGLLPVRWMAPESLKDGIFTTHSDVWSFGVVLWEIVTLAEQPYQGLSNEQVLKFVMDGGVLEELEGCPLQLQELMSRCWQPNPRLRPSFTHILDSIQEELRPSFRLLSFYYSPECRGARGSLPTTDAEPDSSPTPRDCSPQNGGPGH

[33] = molecular target: 5-hydroxytryptamine receptor 2B (Homo sapiens) (UniProt P41595); conditions: Compound concentration 10.0 uM
Chain of 5-hydroxytryptamine receptor 2B (Homo sapiens) (P41595 whole entry): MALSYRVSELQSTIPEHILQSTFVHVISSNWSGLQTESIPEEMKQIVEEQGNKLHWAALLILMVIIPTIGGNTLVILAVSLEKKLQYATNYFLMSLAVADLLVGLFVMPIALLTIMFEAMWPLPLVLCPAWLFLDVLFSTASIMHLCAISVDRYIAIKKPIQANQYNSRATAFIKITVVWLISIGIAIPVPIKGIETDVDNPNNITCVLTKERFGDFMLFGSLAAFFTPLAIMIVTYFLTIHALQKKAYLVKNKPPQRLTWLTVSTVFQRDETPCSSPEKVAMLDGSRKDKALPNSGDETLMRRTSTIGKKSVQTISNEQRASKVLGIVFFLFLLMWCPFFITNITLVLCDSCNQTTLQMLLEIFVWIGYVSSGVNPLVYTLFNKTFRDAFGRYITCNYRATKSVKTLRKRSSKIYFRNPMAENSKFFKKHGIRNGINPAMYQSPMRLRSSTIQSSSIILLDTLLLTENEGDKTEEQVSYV

[34] = molecular target: Protein kinase C alpha type (Homo sapiens, UniProt P17252); assay: PKCalpha(PRKALGY1) Takeda global kinase panel
[35] = molecular target: Cyclin-dependent kinase 18 (Homo sapiens, UniProt Q07002); assay: PCTAIRE3(CD18SGS1) Takeda global kinase panel
[36] = molecular target: Delta-type opioid receptor (Homo sapiens) (UniProt P41143); conditions: Compound concentration 10.0 uM
[37] = molecular target: LIM domain kinase 1 (Homo sapiens, UniProt P53667); assay: LIMK1(LIM1LGY1) Takeda global kinase panel
[38] = molecular target: Serine/threonine-protein kinase D2 (Homo sapiens, UniProt Q9BZL6); assay: PKD2(PRD2LHY1) Takeda global kinase panel
[39] = molecular target: Muscarinic acetylcholine receptor M2 (Homo sapiens) (UniProt P08172); conditions: Compound concentration 10.0 uM
[40] = molecular target: Tyrosine-protein kinase Blk (Homo sapiens, UniProt P51451); assay: BLK(BLK1CGF1) Takeda global kinase panel
[41] = molecular target: Muscarinic acetylcholine receptor M5 (Homo sapiens) (UniProt P08912); conditions: Compound concentration 10.0 uM
[42] = molecular target: BMP-2-inducible protein kinase (Homo sapiens, UniProt Q9NSY1); assay: BIKE(BM2KLGY1) Takeda global kinase panel
[43] = GPCRScan assay: inhibition of GABA/PBR; parameters: species or system Rattus norvegicus; radioligand conc. used [nm] 0.3 – 2.0, parental cells brain tissue

For `CN1C(=O)[C@@H](N2CCc3c(nn(Cc4ccccc4)c3Br)C2=O)COc2ccccc21` [TP-030-2], the IC50 [1] was 1000 nM, the IC50 [2] was 1000 nM and the inhibition [3] was 43%. The IC50 [4] was 1000 nM, the IC50 [5] was 1000 nM and the IC50 [6] was 1000 nM. It also gave an IC50 [7] of 1000 nM, an IC50 [8] of 1000 nM and an IC50 [9] of 1000 nM. The IC50 [10] was 1000 nM, the inhibition [11] was -6% and the IC50 [12] was 1000 nM. For the same molecule, the IC50 [13] was 1000 nM, the IC50 [14] was 1000 nM and the IC50 [15] was 1000 nM. For the same molecule, the inhibition [16] was 33.9%, the inhibition [17] was 53.9% and the inhibition at 90 min, 10 µM [18] was 29% (not active). It also gave an IC50 [19] of 1000 nM, an IC50 [20] of 1000 nM and an IC50 [21] of 1000 nM. For the same molecule, the Ki [22] was 2360 nM, the IC50 [23] was 1000 nM and the inhibition [24] was 11.7%. It also gave an IC50 [25] of 1000 nM, an IC50 [26] of 1000 nM and an IC50 [27] of 1000 nM. The inhibition [28] was -6%, the IC50 [29] was 1000 nM and the inhibition [30] was 10%. The IC50 [31] was 1000 nM, the IC50 [32] was 1000 nM and the inhibition [33] was 38.3%. The IC50 [34] was 1000 nM, the IC50 [35] was 1000 nM and the inhibition [36] was 8%. It also gave an IC50 [37] of 1000 nM, an IC50 [38] of 1000 nM and an inhibition [39] of -4.12%. It also gave an IC50 [40] of 1000 nM, an inhibition [41] of 9.18% and an IC50 [42] of 1000 nM. It also gave a Ki [43] of 347 nM and a pKi [43] of 6.465.
